The test has as its target T1, PPME (Homo sapiens, UniProt Q9Y570).
T1 construct: made in house; host or cells: E. coli BL21(DE3)
T1 sequence (Q9Y570 1-386): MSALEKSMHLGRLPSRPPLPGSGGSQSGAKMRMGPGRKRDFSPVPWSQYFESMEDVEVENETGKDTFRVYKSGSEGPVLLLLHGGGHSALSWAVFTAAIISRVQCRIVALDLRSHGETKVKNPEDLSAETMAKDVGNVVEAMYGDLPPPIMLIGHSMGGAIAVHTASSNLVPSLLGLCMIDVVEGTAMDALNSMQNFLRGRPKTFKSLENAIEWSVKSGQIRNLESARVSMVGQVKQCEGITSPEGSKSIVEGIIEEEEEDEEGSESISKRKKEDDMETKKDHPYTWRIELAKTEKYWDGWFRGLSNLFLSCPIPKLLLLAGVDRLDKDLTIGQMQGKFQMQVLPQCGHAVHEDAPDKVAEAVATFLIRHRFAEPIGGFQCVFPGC
The experiment in a line: PP2A methylesterase (PPME) inhibition, filter paper method. The test is classed as biochemical. As for the experimental part:
This example provides a method by which the rate of demethylation of methyl PP2A can be determined. For the composition of ^3H-labeled methyl-PP2A, 100 μl reaction mixtures consisting of purified PP2A AC dimers (prepared as described in Example 3), purified PPMT (prepared as described in Example 1), 50 mM MOPS buffer pH 7.2, 5 mM DTT, 1 mM EDTA, 1 mg/ml BSA and 10 μl ^3H-SAM were incubated at 37° C. for 30 min and loaded onto a desalting column pre-equilibrated in 50 mM MOPS-Na pH 7.2, 1 mM DTT, 1 mM EDTA, 200 mM NaCl and 5% glycerol. The sample was eluted with the same buffer, 50 μl fractions were collected, and each aliquot analyzed by scintillation counting. Fractions containing ^3H-methyl PP2A were collected and stored at 4° C.
The following assay (see Lee, J. et al., Proc. Nat'l Acad. Sci. U.S.A. 93(12):[…] (1996)) is referred to subsequently as the “filter paper method”. The test compound was incubated with purified PPME (prepared as described in Example 2) and purified ^3H-methyl-labeled PP2A (the preparation of which is described in the preceding paragraph) in Buffer C (50 mM MOPS, 1 mM EDTA, 1 mM DTT buffer at pH 7.2, as in Example 3). After incubation at 37° C. for a fixed time (typically 10 minutes), the reaction mixture was spotted onto a 1 cm^2 piece of Whatman 3 mM filter paper. The filter paper was immediately dipped in 10% ice-cold TCA, and then kept on ice in a plastic tray. After all reactions were run, the filter papers were washed at 4° C. with stirring in a large excess of 10% TCA, similarly washed twice at 4° C. with 100% methanol, and then vacuum dried at 45° C. for 1 hr to remove the ^3H-methanol produced by PP2A demethylation. The dried filter papers then were assayed for radioactivity by submerging them in scintillation fluid and performing scintillation counting. This procedure is easily adapted to a 96-well format to allow high-throughput screening (described below).
As used herein to refer to assay results, the term “inhibition activity” refers to the following relationship: Inhibition activity=1−(amount of methyl-PP2A carboxyl demethylated with inhibitor)/(amount of methyl-PP2A carboxyl […] without inhibitor).

Setting [1] is: PPME at 85 nM, IC50 higher than the value tested, read-out: IC50.

Read-outs that look alike come from different tables or passages of the source.

For the compound `COc1cc(/C=C/C(=O)CC(=O)/C=C/c2ccc(O)c(OC)c2)ccc1O` [CCM-L, Curcumin], the IC50 (PPME at 85 nM, read-out: IC50) was 771 µM.
The same measure, in the same setting: then `Cc1c(C)c2c(c(C)c1O)CCC(C)(CCCC(C)CCCC(C)CCCC(C)C)O2` (racemic) [#12-1, DL-α-tocopherol], with 35 µM.
Consider `COc1cc(C=CC(=O)O)ccc1O` [HMCA, 4-Hydroxy-3-methoxycinnamic acid], for which the IC50 under setting [1] is more than 1000 µM.
With `O=C(O)/C=C/c1ccc(O)c(O)c1` [DHCA, 3,4-Dihdroxycinnamic acid], under setting [1], the IC50 was more than 1000 µM.
As for `Cn1c(=O)c2c(ncn2C)n(C)c1=O` [caffeine], the IC50 (read-out: concentration required for 50% inhibition of PPME) was more than 440 µM.
Take `O=C(O)[C@]1(O)C[C@@H](O)[C@@H](O)[C@H](O)C1` [QA, D(−)-Quinic acid]: the IC50 under setting [1] is more than 10000 µM.
For `O=C(/C=C/c1ccc(O)c(O)c1)O[C@@H]1C[C@](O)(C(=O)O)C[C@@H](O)[C@H]1O` [CGA, Chlorogenic acid], under setting [1], the IC50 is more than 1000 µM.

The record behind these values is patent publication US7923041B2, “Compositions and methods for enhancing cognitive function” (Signum Biosciences, Inc., priority 2005, dated 2011).
